Test results: patent US9409905B2, “Antibacterial compounds and methods for use” (PTC THERAPEUTICS, INC., priority 2011, dated 2016)
Converted amounts (≈) assume the structure as drawn.

Experiments:
[1] = tested on: Escherichia coli (E. coli) BAS849; assay: Antibacterial activity, microbroth dilution MIC (Table 1); type: cell-based; conditions: microbroth dilution, super sensitive Gram-negative E. coli BAS849, read-out: MIC, BAS849
Outline: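 Broth microdilution; endpoint = no macroscopic growth; value = lowest inhibiting concn, μg/mL.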

[2] = tested on: Staphylococcus aureus (S. aureus) 29213; assay: as above; type: cell-based; conditions: microbroth dilution, Gram-positive S. aureus 29213, read-out: MIC, 29213
Outline: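 MIC (μg/mL) is taken as the lowest concentration with no macroscopically visible growth. Strains tested by microbroth dilution: Gram-positive S. aureus 29213, control Gram-negative E. coli 25922, and super-sensitive E. coli BAS849.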

E. coli 25922 = assay: as above; type: cell-based, Escherichia coli; conditions: Escherichia coli; microbroth dilution; control Gram-negative E. coli 25922 strain; read-out: MIC, 25922
Outline: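 Microbroth dilution was used. MIC, in μg/mL, is the lowest drug concentration preventing macroscopically visible growth under the test conditions.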

E. coli LZ3111 = assay: Antibacterial activity, MIC, quinolone resistant strain (Table 2); type: cell-based; conditions: Escherichia coli, LZ3111, read-out: MIC LZ3111
Outline: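 Lowest concentration giving no macroscopically visible growth was taken as the MIC (μg/mL) after microbroth dilution testing.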

E. coli ELZ4000 = assay: Antibacterial activity, MIC, multi-drug resistant clinical isolate (Table 3); type: cell-based; conditions: Escherichia coli, ELZ4000, read-out: MIC ELZ4000
Outline: (§1)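 Growth inhibition is measured by microbroth dilution, and the minimum inhibitory concentration in μg/mL corresponds to the lowest drug level that prevents visible bacterial growth.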

E. coli ELZ4251 = assay: as above; type: cell-based; conditions: Escherichia coli
Outline: as §1

[3] = tested on: Acinetobacter baumannii (A. baumannii) BAA747; assay: Antibacterial activity, MIC (Table 4); type: cell-based; conditions: A. baumannii BAA747, read-out: MIC, BAA747
Outline: (§2)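 MIC (μg/mL) by microbroth dilution, taken as the lowest drug concentration preventing macroscopically visible growth. MXX strains are multi-drug resistant clinical isolates.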

[4] = tested on: Klebsiella pneumoniae (K. pneumoniae) 35657; assay: Antibacterial activity, MIC (Table 4); type: cell-based; conditions: K. pneumoniae 35657, read-out: MIC, 35657
Outline: as §2

A. baumannii MXX2240 = assay: Antibacterial activity, MIC, resistant strain (Table 4); type: cell-based; conditions: Acinetobacter baumannii, MXX2240; resistant A. baumannii MMX2240, multi-drug resistant clinical isolate; read-out: MIC, MMX2240
Outline: as §2

K. pneumoniae MXX1232 = assay: as above; type: cell-based; conditions: Klebsiella pneumoniae, MXX1232; resistant K. pneumoniae MMX1232, multi-drug resistant clinical isolate; read-out: MIC, MMX1232
Outline: as §2

[5] = tested on: Pseudomonas aeruginosa (P. aeruginosa) 27853; assay: Antibacterial activity, MIC (Table 5); type: cell-based; conditions: P. aeruginosa 27853, read-out: MIC, 27853
Outline: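 MIC in μg/mL from broth microdilution; endpoint is the lowest drug level giving no visible growth.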

[6] = tested on: Haemophilus influenzae (H. influenzae) 49247; assay: Antibacterial activity, MIC (Table 6); type: cell-based
Outline: (§3)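 Broth microdilution; MIC (μg/mL) = lowest concentration with no macroscopically visible growth.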

[7] = tested on: Moraxella catarrhalis (M. catarrhalis) 25238; assay: Antibacterial activity, MIC (Table 7); type: cell-based
Outline: as §3

[8] = tested on: Neisseria meningitidis (N. meningitidis) 13090; assay: Antibacterial activity, MIC (Table 8); type: cell-based
Outline: as §3

SMILES	MIC [1]	MIC [2]	MIC (E. coli 25922)	MIC (E. coli LZ3111)	MIC (E. coli ELZ4000)	MIC (E. coli ELZ4251)	MIC [3]	MIC [4]	MIC (A. baumannii MXX2240)	MIC (K. pneumoniae MXX1232)	MIC [5]	MIC [6]	MIC [7]	MIC [8]
CCc1c(-c2ccc3c(c2)cc(CNC(C)(C)C)n3C)[nH]c(=O)c(C(=O)O)c1O [Cpd 193, 6-(2-((tert-butylamino)methyl)-1-methyl-1H-indol-5-yl)-5-ethyl-4-hydroxy-2-oxo-1,2-dihydropyridine-3-carboxylic acid]	< 1 µg/mL	3.5 to 12.5 µg/mL (≈ 8.81 to 31.4 µM)	< 1 µg/mL	3.5 to 12.5 µg/mL (≈ 8.81 to 31.4 µM)	3.5 to 12.5 µg/mL (≈ 8.81 to 31.4 µM)	3.5 to 12.5 µg/mL (≈ 8.81 to 31.4 µM)	< 1 µg/mL	< 1 µg/mL	1 to 3.5 µg/mL (≈ 2.52 to 8.81 µM)	12.5 to 150 µg/mL (≈ 31.4 to 377 µM)	3.5 to 12.5 µg/mL (≈ 8.81 to 31.4 µM)	< 1 µg/mL	< 1 µg/mL	< 1 µg/mL
CCc1c(-c2ccc3c(c2)cc(CNC(C)C)n3C)[nH]c(=O)c(C(=O)O)c1O [Cpd 199, 5-ethyl-4-hydroxy-6-(2-((isopropylamino)methyl)-1-methyl-1H-indol-5-yl)-2-oxo-1,2-dihydropyridine-3-carboxylic acid]	< 1 µg/mL	3.5 to 12.5 µg/mL (≈ 9.13 to 32.6 µM)	< 1 µg/mL	1 to 3.5 µg/mL (≈ 2.61 to 9.13 µM)	3.5 to 12.5 µg/mL (≈ 9.13 to 32.6 µM)	3.5 to 12.5 µg/mL (≈ 9.13 to 32.6 µM)	< 1 µg/mL	< 1 µg/mL	1 to 3.5 µg/mL (≈ 2.61 to 9.13 µM)	12.5 to 150 µg/mL (≈ 32.6 to 391 µM)	3.5 to 12.5 µg/mL (≈ 9.13 to 32.6 µM)	< 1 µg/mL	< 1 µg/mL	< 1 µg/mL
CCc1c(-c2ccc3c(c2)cc(CN2CCC(N(C)C)C2)n3C)[nH]c(=O)c(C(=O)O)c1O (stereo not drawn) [Cpd 200, 6-(2-((3-(dimethylamino)pyrrolidin-1-yl)methyl)-1-methyl-1H-indol-5-yl)-5-ethyl-4-hydroxy-2-oxo-1,2-dihydropyridine-3-carboxylic acid]	< 1 µg/mL	3.5 to 12.5 µg/mL (≈ 7.98 to 28.5 µM)	1 to 3.5 µg/mL (≈ 2.28 to 7.98 µM)	1 to 3.5 µg/mL (≈ 2.28 to 7.98 µM)	12.5 to 150 µg/mL (≈ 28.5 to 342 µM)	12.5 to 150 µg/mL (≈ 28.5 to 342 µM)	3.5 to 12.5 µg/mL (≈ 7.98 to 28.5 µM)	12.5 to 150 µg/mL (≈ 28.5 to 342 µM)	12.5 to 150 µg/mL (≈ 28.5 to 342 µM)	12.5 to 150 µg/mL (≈ 28.5 to 342 µM)	12.5 to 150 µg/mL (≈ 28.5 to 342 µM)	1 to 3.5 µg/mL (≈ 2.28 to 7.98 µM)	1 to 3.5 µg/mL (≈ 2.28 to 7.98 µM)	< 1 µg/mL
CCc1c(-c2ccc3c(c2)cc(CNCCF)n3C)[nH]c(=O)c(C(=O)O)c1O [Cpd 201, 5-ethyl-6-(2-((2-fluoroethylamino)methyl)-1-methyl-1H-indol-5-yl)-4-hydroxy-2-oxo-1,2-dihydropyridine-3-carboxylic acid]	< 1 µg/mL	3.5 to 12.5 µg/mL (≈ 9.03 to 32.3 µM)	< 1 µg/mL	1 to 3.5 µg/mL (≈ 2.58 to 9.03 µM)	3.5 to 12.5 µg/mL (≈ 9.03 to 32.3 µM)	3.5 to 12.5 µg/mL (≈ 9.03 to 32.3 µM)	< 1 µg/mL	< 1 µg/mL	3.5 to 12.5 µg/mL (≈ 9.03 to 32.3 µM)	12.5 to 150 µg/mL (≈ 32.3 to 387 µM)	3.5 to 12.5 µg/mL (≈ 9.03 to 32.3 µM)	< 1 µg/mL	< 1 µg/mL	< 1 µg/mL
CCc1c(-c2ccc3c(c2)cc(CN(C)C2CCC2)n3C)[nH]c(=O)c(C(=O)O)c1O.Cl [Cpd 209, 6-(2-((cyclobutyl(methyl)amino)methyl)-1-methyl-1H-indol-5-yl)-5-ethyl-4-hydroxy-2-oxo-1,2-dihydropyridine-3-carboxylic acid hydrochloride]	< 1 µg/mL	3.5 to 12.5 µg/mL	< 1 µg/mL	3.5 to 12.5 µg/mL	12.5 to 150 µg/mL	12.5 to 150 µg/mL	1 to 3.5 µg/mL	1 to 3.5 µg/mL	3.5 to 12.5 µg/mL	12.5 to 150 µg/mL	12.5 to 150 µg/mL	< 1 µg/mL	< 1 µg/mL	< 1 µg/mL
CCc1c(-c2ccc3c(c2)cc(CN(C)CC2CC2)n3C)[nH]c(=O)c(C(=O)O)c1O.Cl [Cpd 210, 6-(2-(((cyclopropylmethyl)(methyl)amino)methyl)-1-methyl-1H-indol-5-yl)-5-ethyl-4-hydroxy-2-oxo-1,2-dihydropyridine-3-carboxylic acid hydrochloride]	< 1 µg/mL	3.5 to 12.5 µg/mL	< 1 µg/mL	3.5 to 12.5 µg/mL	12.5 to 150 µg/mL	3.5 to 12.5 µg/mL	1 to 3.5 µg/mL	3.5 to 12.5 µg/mL	12.5 to 150 µg/mL	12.5 to 150 µg/mL	12.5 to 150 µg/mL	1 to 3.5 µg/mL	< 1 µg/mL	< 1 µg/mL
CCc1c(-c2ccc3c(c2)cc(CNCC2CC2)n3C)[nH]c(=O)c(C(=O)O)c1O.Cl [Cpd 223, 6-(2-((cyclopropylmethylamino)methyl)-1-methyl-1H-indol-5-yl)-5-ethyl-4-hydroxy-2-oxo-1,2-dihydropyridine-3-carboxylic acid hydrochloride]	< 1 µg/mL	3.5 to 12.5 µg/mL	< 1 µg/mL	1 to 3.5 µg/mL	3.5 to 12.5 µg/mL	12.5 to 150 µg/mL	< 1 µg/mL	3.5 to 12.5 µg/mL	1 to 3.5 µg/mL	12.5 to 150 µg/mL	3.5 to 12.5 µg/mL	< 1 µg/mL	< 1 µg/mL	< 1 µg/mL
CCc1c(-c2ccc3c(c2)cc(CNC2CC2)n3C)[nH]c(=O)c(C(=O)O)c1O.Cl [Cpd 228, 6-(2-((cyclopropylamino)methyl)-1-methyl-1H-indol-5-yl)-5-ethyl-4-hydroxy-2-oxo-1,2-dihydropyridine-3-carboxylic acid hydrochloride]	< 1 µg/mL	3.5 to 12.5 µg/mL	< 1 µg/mL	1 to 3.5 µg/mL	3.5 to 12.5 µg/mL	1 to 3.5 µg/mL	< 1 µg/mL	1 to 3.5 µg/mL	1 to 3.5 µg/mL	12.5 to 150 µg/mL	3.5 to 12.5 µg/mL	< 1 µg/mL	< 1 µg/mL	< 1 µg/mL
CCc1c(-c2ccc3c(c2)cc(CNC2CCCC2)n3C)[nH]c(=O)c(C(=O)O)c1O.Cl [Cpd 229, 6-(2-((cyclopentylamino)methyl)-1-methyl-1H-indol-5-yl)-5-ethyl-4-hydroxy-2-oxo-1,2-dihydropyridine-3-carboxylic acid hydrochloride]	< 1 µg/mL	3.5 to 12.5 µg/mL	< 1 µg/mL	3.5 to 12.5 µg/mL	12.5 to 150 µg/mL	3.5 to 12.5 µg/mL	< 1 µg/mL	< 1 µg/mL	1 to 3.5 µg/mL	12.5 to 150 µg/mL	3.5 to 12.5 µg/mL	< 1 µg/mL	< 1 µg/mL	< 1 µg/mL
